Laboratory results from patent US20130171098A1, “Cyclopropyl Fused Indolobenzazepine HCV NS5B Inhibitors” (priority 2006, published 2013).
Where two headings read alike, the source gives them in different places.

Tests used:
[1] = target: T1, HCV NS5B RdRp genotype 1b (Hepatitis C virus genotype 1b, UniProt Q9WMX2); assay: HCV NS5B RdRp enzyme assay (standard / modified); format: biochemical
T1 construct: The protein was expressed with an 18 amino acid C-terminal truncation to enhance the solubility; made in house; host or cells: E. coli BL21(DE3), pET21a vector
T1 sequence (Q9WMX2 2420-2992): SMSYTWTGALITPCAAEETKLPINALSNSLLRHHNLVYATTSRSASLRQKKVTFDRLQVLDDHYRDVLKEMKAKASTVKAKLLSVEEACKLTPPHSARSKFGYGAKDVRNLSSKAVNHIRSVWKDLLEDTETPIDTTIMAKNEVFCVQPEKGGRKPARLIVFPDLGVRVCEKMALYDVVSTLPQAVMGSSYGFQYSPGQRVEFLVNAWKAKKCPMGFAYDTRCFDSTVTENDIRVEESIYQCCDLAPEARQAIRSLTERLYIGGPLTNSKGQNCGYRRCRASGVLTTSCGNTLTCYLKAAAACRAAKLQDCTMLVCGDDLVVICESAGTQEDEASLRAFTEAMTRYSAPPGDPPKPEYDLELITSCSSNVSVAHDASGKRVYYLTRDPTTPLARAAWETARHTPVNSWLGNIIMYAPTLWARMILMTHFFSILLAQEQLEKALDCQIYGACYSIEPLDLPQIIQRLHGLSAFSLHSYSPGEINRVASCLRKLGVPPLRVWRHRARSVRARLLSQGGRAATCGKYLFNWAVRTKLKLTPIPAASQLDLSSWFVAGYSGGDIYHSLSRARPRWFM
Procedure: HCV NS5B RdRp Cloning, Expression, and Purification.
The cDNA encoding the NS5B protein of HCV, genotype 1b, was cloned into the pET21a expression vector. The protein was expressed with an 18 amino acid C-terminal truncation to enhance the solubility. The E. coli competent cell line BL21(DE3) was used for expression of the protein. Cultures were grown at 37° C. for ˜4 hours until the cultures reached an optical density of 2.0 at 600 nm. The cultures were cooled to 20° C. and induced with 1 mM IPTG. Fresh ampicillin was added to a final concentration of 50 μg/ml and the cells were grown overnight at 20° C.
The lysis buffer consisted of 20 mM Tris-HCl, pH 7.4, 500 mM NaCl, 0.5% triton X-100, 1 mM DTT, 1 mM EDTA, 20% glycerol, 0.5 mg/ml lysozyme, 10 mM MgCl2, 15 ug/ml deoxyribonuclease I, and Complete TM protease inhibitor tablets (Roche). After addition of the lysis buffer, frozen cell pellets were resuspended using a tissue homogenizer. To reduce the viscosity of the sample, aliquots of the lysate were sonicated on ice using a microtip attached to a Branson sonicator. The sonicated lysate was centrifuged at 100,000×g for 1 hr at 4° C. and filtered through a 0.2 μm filter unit (Corning).
The protein was purified using two sequential chromatography steps: Heparin sepharose CL-6B and polyU sepharose 4B (Pharmacia). The chromatography buffers were identical to the lysis buffer but contained no lysozyme, deoxyribonuclease I, MgCl2 or protease inhibitor and the NaCl concentration of the buffer was adjusted according to the requirements for charging the protein onto the column. Each column was eluted with a NaCl gradient which varied in length from 5-50 column volumes depending on the column type. […] The enzyme was aliquoted and stored at −80° C.
Standard HCV NS5B RdRp Enzyme Assay.
HCV RdRp genotype 1b assays were run in a final volume of 60 μl in 96 well plates (Corning 3600). The assay buffer is composed of 20 mM Hepes, pH 7.5, 2.5 mM KCl, 2.5 mM MgCl2, 1 mM DTT, 1.6 U RNAse inhibitor (Promega N2515), 0.01 mg/ml BSA (Sigma B6917), and 2% glycerol. All compounds were serially diluted (3-fold) in DMSO and diluted further in water such that the final concentration of DMSO in the assay was 2%. HCV RdRp genotype 1b enzyme was used at a final concentration of 28 nM. A polyA template was used at 6 nM, and a biotinylated oligo-dT12 primer was used at 180 nM final concentration. Template was obtained commercially (Amersham 27-4110). Biotinylated primer was prepared by Sigma Genosys. 3H-UTP was used at 0.6 μCi (0.29 μM total UTP). Reactions were initiated by the addition of enzyme, incubated at 30° C. for 60 min, and stopped by adding 25 μl of 50 mM EDTA containing SPA beads (4 μg/μl, Amersham RPNQ 0007). Plates were read on a Packard Top Count NXT after >1 hr incubation at room temperature.
Modified HCV NS5B RdRp Enzyme Assay.
A modified enzyme assay was performed essentially as described for the standard enzyme assay except for the following: The biotinylated oligo dT12 primer was precaptured on streptavidin-coated SPA beads by mixing primer and beads in assay buffer and incubating at room temperature for one hour. Unbound primer was removed after centrifugation. The primer-bound beads were resuspended in 20 mM Hepes buffer, pH 7.5 and used in the assay at final concentrations of 20 nM primer and 0.67 μg/μl beads. Order of addition in the assay: enzyme (1.75 nM) was added to diluted compound followed by the addition of a mixture of template (0.36 nM), 3H-UTP (0.6 μCi, 0.29 μM), and primer-bound beads, to initiate the reaction; concentrations given are final. Reactions were allowed to proceed for 4 hours at 30° C.
IC50 values for compounds were determined using seven different [I].

HCV replicon cells = assay: HCV replicon FRET / luciferase assay; format: cell-based, Hepatitis C virus
Procedure: The HCV FRET screening assay was performed in 96-well cell culture plates. The FRET peptide (Anaspec, Inc.) (Taliani et al., Anal. Biochem. 1996, 240, 60-67) contains a fluorescence donor, EDANS, near one end of the peptide and an acceptor, DABCYL, near the other end. The fluorescence of the peptide is quenched by […] resonance energy transfer (RET) between the donor and the acceptor, but as the NS3 protease cleaves the peptide the products are released from RET quenching and the fluorescence of the donor becomes apparent. The assay reagent was made as follows: 5× cell Luciferase cell culture lysis reagent from Promega (#E153A) diluted to 1× with dH2O, NaCl added to 150 mM final, the FRET peptide diluted to 20 μM final from a 2 mM stock.
To prepare plates, HCV replicon cells, with or without a Renilla luciferase reporter gene, were trypsinized and plated in a 96-well plate with titrated test compounds added in columns 3 through 12; columns 1 and 2 contained a control compound (HCV control inhibitor), and the bottom row contained cells with DMSO only. The plates were then placed in a CO2 incubator at 37° C.
Subsequent to addition of the test compounds described above (FRET Assay Preparation), at various times the plate was removed and Alamar blue solution (Trek Diagnostics, #00-100) was added to measure cellular toxicity. After reading in a Cytoflour 4000 instrument (PE Biosystems), plates were rinsed with PBS and then used for FRET assay by the addition of 30 ul of the FRET peptide assay reagent described above (FRET Assay Preparation) per well. The plate was then placed into the Cytoflour 4000 instrument which had been set to 340 excite/490 emission, automatic mode for up to 20 cycles and the plate read in a kinetic mode. Typically, the signal to noise using an endpoint analysis after the reads was at least three-fold. Alternatively, after Alamar blue reading, plates were rinsed with PBS, then used for luciferase assay using the Promega Dual-Glo Luciferase Assay System or the Promega EnduRen Live Cell Substrate assay.
Compound analysis was performed by quantification of the relative HCV replicon inhibition and the relative cytotoxicity values. To calculate cytoxicity values, the average Alamar Blue fluorescence signals from the control wells were set as 100% non-toxic. The individual signals in each of the compound test wells were then divided by the average control signal and multiplied by 100% to determine […]. To calculate the HCV replicon inhibition values, an average background value was obtained from the two wells containing the highest amount of HCV control inhibitor at the end of the assay period. These numbers were similar to those obtained from naïve Huh-7 cells. The background numbers were then subtracted from the average signal obtained from the control wells and this number was used as 100% activity. The individual signals in each of the compound test wells were then divided by the averaged control values after background subtraction and multiplied by 100% to determine percent activity. […] The two numbers generated for the compound plate, percent cytoxicity and percent activity, were used to determine compounds of interest for further analysis.

[2] = Hepatitis C virus, HCV replicon cells, FRET or luciferase activity, read-out: EC50
[3] = HCV NS5B RdRp genotype 1b enzyme
[4] = HCV replicon cells, FRET or luciferase activity

Compound | IC50 [1] | EC50 (HCV replicon cells; Hepatitis C virus) | also measured
COc1ccc2c(c1)C1CC1(C(=O)N1C3CCC1CN(C(=O)OCc1ccccc1)C3)Cn1c-2c(C2CCCCC2)c2ccc(C(=O)NS(=O)(=O)N(C)C)cc21 (stereo not drawn) | 1 to 500 nM | 1 to 500 nM | –
COc1ccc2c(c1)C1CC1C(C(=O)N1C3CCC1CN(C)C3)n1c-2c(C2CCCCC2)c2ccc(C(=O)NS(=O)(=O)C3CC3)cc21 (stereo not drawn) [drawing 100] | 1 to 500 nM | 1 to 500 nM | –
COc1ccc2c(c1)[C@@H]1CC1(C(=O)N1C3CCC1CN(C)C3)Cn1c-2c(C2CCCCC2)c2ccc(C(=O)NS(=O)(=O)CC(C)C)cc21 (stereo partly drawn) | 1 to 500 nM | – | EC50 (HCV replicon cells; [2]): 1 to 500 nM
COc1ccc2c(c1)C1CC1(C(=O)N1C3CCC1CN(C)C3)Cn1c-2c(C2CCCCC2)c2ccc(C(=O)NS(=O)(=O)N(C)C3CC3)cc21 (stereo not drawn) [drawing 112] | – | – | IC50 [1, 3]: 1 to 500 nM; EC50 (HCV replicon cells; [4]): 1 to 500 nM
COc1ccc2c(c1)C1CC1(C(=O)N1C3CCC1CN(C)C3)Cn1c-2c(C2CCCCC2)c2ccc(C(=O)NS(=O)(=O)C(F)(F)F)cc21 (stereo not drawn) | 1 to 500 nM | 1 to 500 nM | –
CCN(CC)C(=O)N1CC2CCC(C1)N2C(=O)C12CC1c1cc(OC)ccc1-c1c(C3CCCCC3)c3ccc(C(=O)NS(=O)(=O)C4CC4)cc3n1C2 (stereo not drawn) [drawing 105] | – | – | IC50 [1, 3]: 1 to 500 nM; EC50 (HCV replicon cells; [4]): 1 to 500 nM
COc1ccc2c(c1)C1CC1(C(=O)N1C3CCC1CN(C)C3)Cn1c-2c(C2CCCCC2)c2ccc(C(=O)NS(=O)(=O)C3CCCC3)cc21 (stereo not drawn) | – | 1 to 500 nM | –
COc1ccc2c(c1)C1CC1(C(=O)N1[C@@H]3CC[C@H]1CN(S(C)(=O)=O)C3)Cn1c-2c(C2CCCCC2)c2ccc(C(=O)NS(=O)(=O)N(C)C)cc21 (stereo partly drawn) | 1 to 500 nM | 1 to 500 nM | –
COc1ccc2c(c1)[C@H]1C[C@@]1(C(=O)N1C3CCC1CN(C)C3)Cn1c-2c(C2CCCCC2)c2ccc(C(=O)NS(=O)(=O)C(C)C)cc21 | – | 1 to 500 nM | –
COc1ccc2c(c1)C1CC1(C(=O)N1C3CCC1CN(Cc1ccccc1)C3)Cn1c-2c(C2CCCCC2)c2ccc(C(=O)NS(=O)(=O)N(C)C)cc21 (stereo not drawn) [drawing 33] | 1 to 500 nM | 1 to 500 nM | –
COc1ccc2c(c1)[C@H]1C[C@@]1(C(=O)N1[C@@H]3CC[C@H]1CN(C)C3)Cn1c-2c(C2CCCCC2)c2ccc(C(=O)NS(=O)(=O)N(C)C)cc21 | – | – | IC50 ([1]; HCV NS5B RdRp genotype 1b enzyme, read-out: IC50): 1 to 500 nM; EC50 (HCV replicon cells; [2]): 1 to 500 nM
CN1CC2CCC(C1)N2C(=O)C12CC1c1c(OC(F)(F)F)cccc1-c1c(C3CCCCC3)c3ccc(C(=O)NS(=O)(=O)N(C)C)cc3n1C2 (stereo not drawn) | 1 to 500 nM | 1 to 500 nM | –
COc1ccc2c(c1)C1CC1(C(=O)N1C3CCC1CN(C)C3)Cn1c-2c(C2CCCCC2)c2ccc(C(=O)NS(N)(=O)=O)cc21 (stereo not drawn) [drawing 38] | 1 to 500 nM | 1 to 500 nM | –
COc1ccc2c(c1)C1CC1(C(=O)N1C3CCC1CN(C)C3)Cn1c-2c(C2CCCCC2)c2ccc(C(=O)NS(=O)(=O)CC(F)(F)F)cc21 (stereo not drawn) | – | 1 to 500 nM | –
COc1ccc2c(c1)C1CC1(C(=O)N1C3CCC1CN(C)C3)Cn1c-2c(C2CCCCC2)c2ccc(C(=O)NS(=O)(=O)C3CCCCC3)cc21 (stereo not drawn) | 1 to 500 nM | 1 to 500 nM | –
